In one series the test system is rabbit fetus. The following applies: cited from earlier work.
The test system of series [1] is severely growth restricted fetus (fetal IUGR). The experiment in a line: Clinical case study: severe fetal IUGR treated with maternal IV hypertonic D-glucose bolus. The class given is in vivo, human. An excerpt: At the outset, it is relevant to describe a clinical case study of successfully treating a severe case of fetal IUGR, during the years 1983-84, by the Author Inventor as a practicing ob/gyn. in India, as it is the basis for this writing of significant depth that aided the author inventor decades later to fully comprehend what was once successfully treated, but was only incompletely understood at that time.
They were well nourished and was from good socioeconomic background, and there were no obvious etiological factors, that could be accounted for the identified fetal IUGR. After monitoring the growth of the fetus by assessing fundal height (a clinical norm of fetal measure in the past) for 3-4 more weeks, it was confirmed that the uterine size was not progressing, and that the patient had severely growth restricted fetus. […] The patient had more frequent pre-natal follow ups, and the treatment was diligently continued with increments, as also the patient was admirably cooperative. Nearing term, they were delivered by elective cesarean section.
The observed fetal growth restriction was undoubtedly severe, but with mere hypertonic intravenous D-glucose treatment and no other (except for standard doses of prenatal vitamins and minerals), the […] delivered an AGA baby, who obviously had caught up with standard growth curve, as though glucose supplement alone, and nothing else was needed.

The subject of series [2] is Human Umbilical Vessel Endothelial cells (HUVEC). Particulars: cited from earlier work.
For series [3] the following is noted: 25 G IV bolus over 3-5 minutes, cited from earlier work.
In another series the test system is all tissues types. The following applies: cited from earlier work.

Where two headings read alike, the source gives them in different places.

With `O=C[C@H](O)[C@@H](O)[C@H](O)[C@H](O)CO` [D-glucose], the “reversal of growth restriction” value in the series with rabbit fetus (Flake et al, natural runt rabbit fetus, solutions alone or in combination) is “did not reverse growth restriction”. Further, the fetal weight entry in the series with rabbit fetus (Mulvihill et al 1985, pregnant rabbit models, transamniotic) is reported as “increase in fetal weight”. The fetal growth response entry in series [1] (20% IV bolus 50 cc twice daily to the parent, observed in 2-3 weeks) is “undoubted and immediate catch up of fetal growth”. Besides, the “birth weight for gestational age” value in series [1] (at delivery nearing term) was “appropriate for the gestational age (AGA)”. In addition, the “Apgar score of the baby” value in series [1] (elective cesarean nearing term after continued treatment with increments) worked out at 10. The “adverse effects in the mother due to induced maternal hyperglycemia” value in series [1] (throughout gestation) is “No adverse effects”. The CGMP accumulation entry in series [2] is “increased”. Besides, the L-Arginine transport entry in series [2] was “increased”. In addition, the “blood glucose level (peak)” value in series [3] (at 15 minutes) is on record as 175 mg %. Besides, the blood glucose level in series [3] (at 30 minutes) is reported as 125 mg %; in series [3] (at 1 hour) it was 75 mg %; in series [3] (during the second hour), 70 mg %.

Turning to `NCCCC[C@@H](N)C(=O)O` [D-lysine], the neovascular growth result with all tissues types (all tissues types) is “induce neovascular growth”.

In the case of `NCCCC[C@H](N)C(=O)O` [monomeric lysine, lysine], the “biomass (cell population) expansion” value in the series with all tissues types (compared to other physicochemical means) is “expand biomass (cell population) at the least possible time”.

Regarding insulin, in series [2], the CGMP accumulation result is recorded as “increased” and the L-Arginine transport entry was “increased”.
